Data on 40 compounds can be found in patent publication US11912703B2, “6-azaindole compounds” (BRISTOL-MYERS SQUIBB COMPANY, priority 2017, dated 2024).

One assay has as its target human TLR7 (Homo sapiens (Human), UniProt Q9NYK1). Nature of the assay: TLR7 inhibition reporter assay (HEK-Blue SEAP). In kind it is cell-based. The note with it: HEK-Blue cells overexpressing human TLR7, gardiquimod 7.5 μM stimulation. For orientation: A reporter such as luciferase makes a cellular process visible.
The target in a further assay is human TLR9 (Homo sapiens (Human), UniProt Q9NR96). Nature of the assay: TLR9 inhibition reporter assay (HEK-Blue SEAP).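 Also: SEAP driven by IFN-β minimal promoter carrying five NF-κB and AP-1 sites, 22 h at 37 °C, compounds 0.05 nM–50 µM, inhibition scaled between agonist-plus-DMSO and reference-inhibitor wells.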
The target in the next assay is human TLR8 (Homo sapiens (Human), UniProt Q9NR97). The assay is described as follows: TLR8 inhibition reporter assay (HEK-Blue SEAP).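 Also: SEAP driven by IFN-β minimal promoter with five NF-κB and AP-1 sites, compounds tested 0.05 nM to 50 µM, 22 h incubation, inhibition relative to agonist plus DMSO wells.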
The mark [1] stands for this setting: read-out: TLR9 IC50; HEK-Blue cells overexpressing human TLR9, ODN2006 5 nM stimulation, SEAP reporter.
Setting [2] is: read-out: TLR8 IC50; HEK-Blue cells overexpressing human TLR8, R848 15.9 μM stimulation, SEAP reporter.
The mark [3] stands for this setting: read-out: TLR9 IC50; HEK-Blue cells overexpressing human TLR9; ODN2006 5 nM stimulation; SEAP reporter.
Where [4] appears, read: read-out: TLR8 IC50; HEK-Blue cells overexpressing human TLR8; R848 15.9 μM stimulation; SEAP reporter.

The structures appear in SMILES notation. Read-outs that look alike come from different tables or passages of the source.

human TLR7, sequence (Q9NYK1 27-1049): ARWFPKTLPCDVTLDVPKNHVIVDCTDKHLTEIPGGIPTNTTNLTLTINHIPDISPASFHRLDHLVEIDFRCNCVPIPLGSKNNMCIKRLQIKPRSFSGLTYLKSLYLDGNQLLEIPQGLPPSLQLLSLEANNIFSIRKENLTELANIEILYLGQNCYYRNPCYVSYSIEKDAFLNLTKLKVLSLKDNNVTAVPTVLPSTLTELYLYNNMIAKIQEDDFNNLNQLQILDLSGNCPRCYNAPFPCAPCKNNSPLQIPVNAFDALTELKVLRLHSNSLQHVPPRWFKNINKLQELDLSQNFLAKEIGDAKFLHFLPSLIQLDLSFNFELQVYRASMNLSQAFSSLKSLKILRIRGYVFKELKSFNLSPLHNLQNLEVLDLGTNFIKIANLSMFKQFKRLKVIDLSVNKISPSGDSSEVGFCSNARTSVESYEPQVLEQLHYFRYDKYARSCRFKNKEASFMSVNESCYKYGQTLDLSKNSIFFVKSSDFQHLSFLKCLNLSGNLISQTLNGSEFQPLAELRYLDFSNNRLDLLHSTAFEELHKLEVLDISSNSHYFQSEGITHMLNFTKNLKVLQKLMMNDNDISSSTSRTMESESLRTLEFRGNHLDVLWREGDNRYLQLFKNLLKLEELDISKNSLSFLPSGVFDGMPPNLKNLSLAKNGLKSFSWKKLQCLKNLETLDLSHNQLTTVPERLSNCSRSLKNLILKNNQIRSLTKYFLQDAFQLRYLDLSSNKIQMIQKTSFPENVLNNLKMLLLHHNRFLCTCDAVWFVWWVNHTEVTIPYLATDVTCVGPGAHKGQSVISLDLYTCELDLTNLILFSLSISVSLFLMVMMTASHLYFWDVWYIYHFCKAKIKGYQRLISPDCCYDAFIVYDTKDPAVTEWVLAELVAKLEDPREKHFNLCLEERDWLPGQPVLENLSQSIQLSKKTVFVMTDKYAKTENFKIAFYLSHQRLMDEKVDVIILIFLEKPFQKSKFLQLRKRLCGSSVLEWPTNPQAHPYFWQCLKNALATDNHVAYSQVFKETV
human TLR8, sequence (Q9NR97 27-1041): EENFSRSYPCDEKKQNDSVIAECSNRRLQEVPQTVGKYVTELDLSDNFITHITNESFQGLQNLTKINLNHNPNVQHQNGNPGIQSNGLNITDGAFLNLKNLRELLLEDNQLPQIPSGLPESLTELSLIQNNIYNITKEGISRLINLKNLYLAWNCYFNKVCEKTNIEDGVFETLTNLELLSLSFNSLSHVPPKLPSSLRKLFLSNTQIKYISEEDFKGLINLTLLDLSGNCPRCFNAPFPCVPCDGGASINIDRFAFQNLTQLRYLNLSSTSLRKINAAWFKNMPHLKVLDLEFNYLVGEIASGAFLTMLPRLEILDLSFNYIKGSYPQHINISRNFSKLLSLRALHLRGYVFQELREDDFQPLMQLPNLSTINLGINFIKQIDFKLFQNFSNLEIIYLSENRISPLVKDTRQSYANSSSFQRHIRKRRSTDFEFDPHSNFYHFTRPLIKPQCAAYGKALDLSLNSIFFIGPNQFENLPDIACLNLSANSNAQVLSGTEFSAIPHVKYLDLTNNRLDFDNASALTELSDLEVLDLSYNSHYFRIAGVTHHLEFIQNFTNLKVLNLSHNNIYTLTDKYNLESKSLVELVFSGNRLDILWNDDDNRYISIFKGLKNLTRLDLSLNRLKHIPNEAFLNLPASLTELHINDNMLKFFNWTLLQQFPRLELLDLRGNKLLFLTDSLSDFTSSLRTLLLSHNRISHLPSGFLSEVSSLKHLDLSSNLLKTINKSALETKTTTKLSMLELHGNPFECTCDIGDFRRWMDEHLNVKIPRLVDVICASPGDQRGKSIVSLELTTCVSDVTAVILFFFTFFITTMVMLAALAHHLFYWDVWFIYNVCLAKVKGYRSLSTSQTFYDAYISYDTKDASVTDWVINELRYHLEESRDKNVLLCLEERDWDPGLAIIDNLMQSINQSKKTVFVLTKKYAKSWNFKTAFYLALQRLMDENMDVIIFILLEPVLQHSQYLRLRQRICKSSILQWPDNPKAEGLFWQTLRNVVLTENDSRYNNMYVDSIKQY
human TLR9, sequence (Q9NR96 26-1032): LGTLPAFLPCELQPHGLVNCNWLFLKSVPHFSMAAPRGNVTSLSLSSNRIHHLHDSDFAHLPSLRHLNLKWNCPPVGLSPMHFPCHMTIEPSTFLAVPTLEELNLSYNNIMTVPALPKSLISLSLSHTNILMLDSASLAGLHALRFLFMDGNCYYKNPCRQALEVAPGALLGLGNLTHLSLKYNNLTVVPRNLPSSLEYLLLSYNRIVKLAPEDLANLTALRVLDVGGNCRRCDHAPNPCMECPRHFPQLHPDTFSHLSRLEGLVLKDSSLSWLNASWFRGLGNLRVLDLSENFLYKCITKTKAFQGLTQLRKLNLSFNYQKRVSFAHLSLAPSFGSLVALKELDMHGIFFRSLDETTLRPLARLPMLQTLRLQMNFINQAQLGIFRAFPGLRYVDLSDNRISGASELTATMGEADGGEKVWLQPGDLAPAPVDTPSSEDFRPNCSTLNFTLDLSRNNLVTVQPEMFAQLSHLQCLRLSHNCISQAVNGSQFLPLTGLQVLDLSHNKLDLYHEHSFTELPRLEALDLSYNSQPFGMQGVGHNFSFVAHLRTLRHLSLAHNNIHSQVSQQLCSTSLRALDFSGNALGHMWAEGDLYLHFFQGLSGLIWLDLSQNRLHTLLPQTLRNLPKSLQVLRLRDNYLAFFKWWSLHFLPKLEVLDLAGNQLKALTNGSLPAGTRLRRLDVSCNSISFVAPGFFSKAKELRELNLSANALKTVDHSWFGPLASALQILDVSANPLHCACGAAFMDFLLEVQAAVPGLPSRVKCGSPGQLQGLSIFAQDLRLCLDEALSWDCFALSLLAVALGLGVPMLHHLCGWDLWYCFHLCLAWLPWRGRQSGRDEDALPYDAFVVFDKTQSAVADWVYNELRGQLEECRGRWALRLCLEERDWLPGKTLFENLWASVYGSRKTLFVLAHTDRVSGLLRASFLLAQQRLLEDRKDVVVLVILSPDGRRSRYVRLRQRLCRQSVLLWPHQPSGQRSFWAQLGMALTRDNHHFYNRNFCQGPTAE

Broadly, the IC50 is the concentration that inhibits the measured activity by half. With `Cc1c(-c2[nH]c3cnc(C4CCC(NC5CCOC5)CC4)cc3c2C(C)C)cn2ncnc2c1C` (centres unmarked) [Example 327], the IC50 turned out to be 7.1 nM against human TLR7, 771 nM at human TLR9 (setting [1]) and 17 nM at human TLR8 (setting [2]).
`COc1cc(-c2[nH]c3cnc(N4CCN(C5CCCOC5)CC4)c(F)c3c2C(C)C)cn2ncnc12` (single isomer, unassigned) [Example 387]: the IC50 against human TLR7 was 33 nM; at human TLR9 (setting [1]), above 50000 nM; on human TLR8 (setting [2]), 13 nM.
For the compound `Cc1c(-c2[nH]c3cnc(C4CCC(NC56CC(C5)C6)CC4)c(F)c3c2C(C)C)cn2ncnc2c1C` (centres unmarked) [Example 238], the IC50 at human TLR7 is 62 nM; at human TLR9 (setting [1]), 28500 nM; at human TLR8 (setting [2]), 21 nM.
For `COc1cc(-c2[nH]c3cnc(C4CCN(CC(=O)N(C)C)CC4)c(F)c3c2C(C)C)cn2ncnc12` [Example 34] the same measures were 2.5 nM, 1510 nM and 2 nM.
Regarding `COc1cc(-c2[nH]c3cnc(C4CCN(CC(N)=O)CC4)c(C)c3c2C(C)C)cn2ncnc12` [Example 11], the IC50 on human TLR7 turned out to be 1.6 nM; at human TLR9 (setting [1]), 91 nM; at human TLR8 (setting [2]) it was 8.3 nM.
For `COc1cc(-c2[nH]c3cnc(C4CCC(N(C)C5COC5)CC4)c(F)c3c2C(C)C)cn2ncnc12` (centres unmarked) [Example 106] the same measures were 4.9 nM, 1950 nM and 5 nM.
With `Cc1c(-c2[nH]c3cnc(N4CCC(NC5CCOCC5)CC4)c(F)c3c2C(C)C)cn2ncnc2c1C` [Example 264], the half-maximal inhibitory concentration (IC50) against human TLR7 is 0.69 nM; on human TLR9 (setting [1]), 1640 nM; on human TLR8 (setting [2]), 0.16 nM.
As for `COc1cc(-c2[nH]c3cnc(N4CCN(CC(=O)N(C)C)CC4)cc3c2C(C)C)cn2ncnc12` [Example 300], the IC50 was 13 nM at human TLR7, 11900 nM at human TLR9 (setting [1]) and 1.6 nM on human TLR8 (setting [2]).
As for `Cc1c(N2CCC(NC(C)C)CC2)ncc2[nH]c(-c3cc(C)c4ncnn4c3)c(C(C)C)c12` [Example 236], the IC50 against human TLR7 came to 0.66 nM; at human TLR9 (setting [1]), 939 nM; at human TLR9 (setting [3]), 939 nM; on human TLR8 (setting [2]) it was 1.1 nM; at human TLR8 (setting [4]), 1.1 nM.
On to `Cc1c(-c2[nH]c3cnc(C4CCC(NCC(C)(C)C)CC4)cc3c2C(C)C)cn2ncnc2c1C` (centres unmarked) [Example 351], for which the 50% inhibitory concentration (IC50) at human TLR7 was found to be 11 nM; on human TLR9 (setting [1]) it was 345 nM; on human TLR8 (setting [2]) it was 5.4 nM.
For `CCN(C)C1CCC(c2ncc3[nH]c(-c4cc(OC)c5ncnn5c4)c(C(C)C)c3c2C)CC1` (centres unmarked) [Example 268], in that order: 4.8 nM, 757 nM and 17 nM.
For `COc1cc(-c2[nH]c3cnc(C4CCC(NCC5(C)COC5)CC4)c(C)c3c2C(C)C)cn2ncnc12` (centres unmarked) [Example 269] the same measures were 4.4 nM, 205 nM and 6.4 nM.
Regarding `COc1cc(-c2[nH]c3cnc(C4CCC(N5CC6(COC6)C5)CC4)c(F)c3c2C(C)C)cn2ncnc12` (centres unmarked) [Example 226], the IC50 at human TLR7 was 0.51 nM; on human TLR9 (setting [3]), 1290 nM; on human TLR8 (setting [4]), 0.73 nM.
Take `Cc1cc(-c2[nH]c3cnc(N4CCC(NC5COC5)CC4)c(F)c3c2C(C)C)cn2ncnc12` [Example 255]: the IC50 came out at 0.5 nM at human TLR7, 14500 nM at human TLR9 (setting [1]) and 0.49 nM on human TLR8 (setting [2]).
Take `COc1cc(-c2[nH]c3cnc(N4CCNCC4)cc3c2C(C)C)cn2ncnc12` [Example 7, 6-(3-isopropyl-5-(piperazin-1-yl)-1H-pyrrolo[2,3-c]pyridin-2-yl)-8-methoxy-[1,2,4]triazolo [1,5-a]pyridine]: the results for the concentration for half-maximal inhibition (IC50) at human TLR7, on human TLR9 (setting [1]) and on human TLR8 (setting [2]) were 1.5 nM, 168 nM and 0.56 nM, respectively.
For the compound `Cc1cc(-c2[nH]c3cnc(N4CCC(N(C)CC(N)=O)CC4)c(F)c3c2C(C)C)cn2ncnc12` [Example 158], the IC50 was 1.4 nM against human TLR7, 17500 nM at human TLR9 (setting [1]) and 2.1 nM at human TLR8 (setting [2]).
Regarding `COc1cc(-c2[nH]c3cnc(C4CCC(N5CCC5)CC4)cc3c2C(C)C)cn2ncnc12` (centres unmarked) [Example 332], the IC50 on human TLR7 is 7.7 nM; on human TLR9 (setting [1]), 154 nM; at human TLR8 (setting [2]), 56 nM.
On to `Cc1c(-c2[nH]c3cnc(N4CCC(NCC5(C)COC5)CC4)c(C)c3c2C(C)C)cn2ncnc2c1C` [Example 54], for which the IC50 came to 0.9 nM against human TLR7, 935 nM at human TLR9 (setting [1]) and 0.3 nM at human TLR8 (setting [2]).
As to `COc1cc(-c2[nH]c3cnc(N4CCN(CC(N)=O)CC4)c(F)c3c2C(C)C)cn2ncnc12` [Example 358], the figures for the IC50 at human TLR7, at human TLR9 (setting [1]) and on human TLR8 (setting [2]) were 3.6 nM, above 50000 nM and 3.8 nM, respectively.
For `COc1cc(-c2[nH]c3cnc(C4CCC(NC[C@@H](F)C(C)(C)O)CC4)c(C)c3c2C(C)C)cn2ncnc12` (some centres unmarked) [Example 117] the same measures were 28 nM, 868 nM and 41 nM.
Regarding `COc1cc(-c2[nH]c3cnc(C4CCC(NCC(C)(C)C)CC4)cc3c2C(C)C)cn2ncnc12` (centres unmarked) [Example 310], the results for the IC50 on human TLR7, at human TLR9 (setting [1]) and at human TLR8 (setting [2]) were 13 nM, 640 nM and 32 nM, respectively.
Take `Cc1c(-c2[nH]c3cnc(C4CCN(C5COC5)CC4)cc3c2C(C)C)cn2ncnc2c1C` [Example 30]: the values for the IC50 on human TLR7, on human TLR9 (setting [1]) and at human TLR8 (setting [2]) were 4.7 nM, 855 nM and 7.7 nM, respectively.
For `Cc1c(-c2[nH]c3cnc(N4CC5(C4)CN(C4CCN(C(C)C)CC4)C5)c(F)c3c2C(C)C)cn2ncnc2c1C` [Example 406], in that order: 8.4 nM, 937 nM and 4.8 nM.
As to `Cc1cc(-c2[nH]c3cnc(C4CCC(N5CCC5)CC4)c(F)c3c2C(C)C)cn2ncnc12` (centres unmarked) [Example 109], the IC50 is 0.61 nM at human TLR7, 1660 nM at human TLR9 (setting [1]) and 1.7 nM at human TLR8 (setting [2]).
With `COc1cc(-c2[nH]c3cnc(C4CCC(N5CC6(COC6)C5)CC4)cc3c2C(C)C)cn2ncnc12` (centres unmarked) [Example 309], the IC50 against human TLR7 was 7.3 nM; at human TLR9 (setting [1]), 133 nM; at human TLR8 (setting [2]), 49 nM.
As to `CCN(C)C1CCC(c2cc3c(C(C)C)c(-c4cc(OC)c5ncnn5c4)[nH]c3cn2)CC1` (centres unmarked) [Example 331], the IC50 at human TLR7 stood at 263 nM; at human TLR9 (setting [1]), 3300 nM; on human TLR8 (setting [2]), 637 nM.
As for `Cc1c(-c2[nH]c3cnc(N4CC5(C4)CN(C4CCOCC4)C5)c(F)c3c2C(C)C)cn2ncnc2c1C` [Example 401], the IC50 on human TLR7 came to 27 nM; on human TLR9 (setting [1]) it was 6440 nM; on human TLR8 (setting [2]), 4.4 nM.
In the case of `CNCC(=O)NC1CCN(c2cc3c(C(C)C)c(-c4cc(OC)c5ncnn5c4)[nH]c3cn2)CC1` [Example 339], the IC50 amounted to 12 nM against human TLR7, 677 nM on human TLR9 (setting [1]) and 28 nM at human TLR8 (setting [2]).
Consider `Cc1cc(-c2[nH]c3cnc(N4CCC(N(C)CC(C)(C)C)CC4)c(F)c3c2C(C)C)cn2ncnc12` [Example 196], for which the IC50 against human TLR7 stood at 3 nM; on human TLR9 (setting [1]), 2080 nM; at human TLR8 (setting [2]), 1.1 nM.
Consider `COc1cc(-c2[nH]c3cnc(N4CCN(C5CCCOC5)CC4)c(F)c3c2C(C)C)cn2ncnc12` (single isomer, unassigned) [Example 386], for which the IC50 at human TLR7 is 26 nM; at human TLR9 (setting [1]) it was above 50000 nM; on human TLR8 (setting [2]) it was 6.8 nM.
For `Cc1cc(-c2[nH]c3cnc(C4CCN(C(=O)CN(C)C)CC4)c(F)c3c2C(C)C)cn2ncnc12` [Example 66], the values for the IC50 on human TLR7, at human TLR9 (setting [1]) and on human TLR8 (setting [2]) were 2.1 nM, 3620 nM and 4.9 nM, respectively.
`COc1cc(-c2[nH]c3cnc(C4CCC(NCC(C)(C)OC)C4)cc3c2C(C)C)cn2ncnc12` (centres unmarked) [Example 179]: the half-maximal inhibitory concentration (IC50) on human TLR7 turned out to be 20 nM; on human TLR9 (setting [1]) it was 486 nM; at human TLR8 (setting [2]) it was 7 nM.
Take `Cc1c(-c2[nH]c3cnc(C4CCC(NCC5(C)COC5)CC4)c(F)c3c2C(C)C)cn2ncnc2c1C` (centres unmarked) [Example 171]: the values for the IC50 against human TLR7, on human TLR9 (setting [1]) and on human TLR8 (setting [2]) were 0.43 nM, 1960 nM and 0.12 nM, respectively.
As for `CNC(=O)CN1CCC(c2cc3c(C(C)C)c(-c4cn5ncnc5c(C)c4C)[nH]c3cn2)CC1` [Example 26], the IC50 against human TLR7 is 3.1 nM; at human TLR9 (setting [1]) it was 633 nM; on human TLR8 (setting [2]), 6.9 nM.
For the compound `Cc1c(-c2[nH]c3cnc(C4CCC(N5CC6(COC6)C5)CC4)c(C)c3c2C(C)C)cn2ncnc2c1C` (centres unmarked) [Example 142], the IC50 on human TLR7 was determined as 13 nM; at human TLR9 (setting [1]), 282 nM; at human TLR8 (setting [2]), 39 nM.
As for `Cc1cc(-c2[nH]c3cnc(N4CCNCC4)cc3c2C(C)C)cn2ncnc12` [Example 301], the IC50 against human TLR7 is above 3120 nM; at human TLR9 (setting [1]), 2680 nM; on human TLR8 (setting [2]) it was above 3120 nM.
As to `COc1cc(-c2[nH]c3cnc(C4CCC(NCC5(C)COC5)CC4)c(F)c3c2C(C)C)cn2ncnc12` (centres unmarked) [Example 193], the IC50 came to 0.84 nM against human TLR7, 1250 nM on human TLR9 (setting [1]) and 0.4 nM at human TLR8 (setting [2]).
In the case of `Cc1c(-c2[nH]c3cnc(N4CC5(CN(CC(F)(F)F)C5)C4)c(F)c3c2C(C)C)cn2ncnc2c1C` [Example 434], the IC50 on human TLR7 is 90 nM; on human TLR9 (setting [1]) it was above 50000 nM; at human TLR8 (setting [2]), 48 nM.
Take `COCCNC1CCC(c2cc3c(C(C)C)c(-c4cn5ncnc5c(C)c4C)[nH]c3cn2)CC1` (centres unmarked) [Example 348]: the IC50 on human TLR7 is 3.5 nM; on human TLR9 (setting [1]), 468 nM; on human TLR8 (setting [2]), 9 nM.
For `COc1cc(-c2[nH]c3cnc(N4CCN(CC5CC5)CC4)c(F)c3c2C(C)C)cn2ncnc12` [Example 390], the results for the IC50 at human TLR7, at human TLR9 (setting [1]) and at human TLR8 (setting [2]) were 2.3 nM, 4060 nM and 0.15 nM, respectively.
